In patent publication US20120225093A1, “Abrogating HIV-1 Infection via Drug-Induced Reactivation of Apoptosis” (UNIVERSITY OF MEDICINE AND DENTISTRY OF NEW JERSEY, priority 2010, published 2012):

Assays:
H9-HIV cells [1] = assay: 89-kDa PARP fragment by flow cytometry in H9-HIV cells; type: cell-based; settings: 30 μM CPX, 24 hr
Experimental: (§1) Intracellular antigens were determined, as geometric means of fluorescence, by flow cytometric analysis using a BD FACSCalibur™ and its BD FACStation System™ (Becton Dickinson; San Jose, Calif.). Intracellular antigens were stained according to the instrument producer's instructions. Anti-HIV-1 Tat antibody was from Abcam Inc. (Cambridge, Mass.); anti-HIV-1 Vpr from Santa Cruz Biotechnology (Santa Cruz, Calif.); anti-HIV-1 Rev from Advanced Biotechnologies Inc. (Columbia, Md.); anti-HIV-1 p24 (KC57) from Beckman Coulter, Miami, Fla.; monoclonal C92-605 anti-human caspase-3 (active form) from Pharmingen (BD Biosciences, San Diego, Calif.); monoclonal F21-852 anti-human poly (ADP-ribose) polymerase (caspase-cleaved 89-kDa fragment); and monoclonal 6C8 anti-human Bcl-2 from Becton Dickinson (BD Biosciences; San Diego, Calif.).
To determine whether the differential effects of the drugs extend into late apoptosis, PARP fragmentation in H9 and H9-HIV cells was measured. CPX caused an ˜8-fold increase in H9-HIV cells positive for 89-kDa PARP, compared to a ˜2 fold increase in H9 cells (FIG. 9A). By 24 hr, twice as many cells stained positive for 89-kDa PARP in the infected cultures as in uninfected cultures (27% compared to 14%; FIG. 9B). […] It is concluded that the retroviral suppression of initiation and execution of apoptosis is reversed by the drugs and transformed into enhanced susceptibility of HIV-infected cells to apoptosis.

IL-10 = IL-10 secretion by PBMC cultures (cytometric bead array); type: cell-based, human; settings: CPX added at inoculation or 12 hr later; Phase I
Experimental: (§2) Uninfected PBMCs were co-incubated with infected PBMC stock in 24-well microplates at 2 ml/well Medium B, at a 10:1 ratio of uninfected-to-infected cells, and a total cell number of 1×10^6. Cultures were maintained and assayed for 6 consecutive days. CPX or Agent P2 was added at the time of inoculation or 12 hr later. Leaving the cell layer undisturbed, half the medium in each well was replenished every day, with concurrent adjustment of compound concentration. On each day during the 6-day experiments, a set of wells was harvested: the cells were processed for determination of viability and apoptosis, and the cell-free supernatants were stored at −80° C. for p24 and viral RNA measurements. Experiments were performed at least in duplicate and repeated at least twice.
(§3) p24 core antigen in the supernatant was quantified by ELISA (Retrotek HIV-1 p24™; ZeptoMetrix Corp.; Buffalo, N.Y.). HIV-1 RNA copy number in the supernatant was determined with a PCR-based and FDA-approved assay (Amplicor HIV-1 Monitor™; Roche Diagnostics Corp.; Indianapolis, Ind.). IFN-γ and IL-10 in the supernatant were determined by cytometric bead array (Human Th1/Th2 Cytokine Kit II™; BD Biosciences Pharmingen, San Jose, Calif.).
(§4) To further assess the cellular effects of CPX, the secretion of interferon (IFN)-γ and interleukin (IL)-10 was measured. […]

uninfected H9 cells = assay: 89-kDa PARP fragment by flow cytometry in uninfected H9 cells; type: cell-based; settings: 30 μM CPX, 24 hr
Experimental: as §1
To determine whether the differential effects of the drugs extend into late apoptosis, PARP fragmentation in H9 and H9-HIV cells was measured. CPX caused an ˜8-fold increase in H9-HIV cells positive for 89-kDa PARP, compared to a ˜2 fold increase in H9 cells (FIG. 9A). By 24 hr, twice as many cells stained positive for 89-kDa PARP in the infected cultures as in uninfected cultures (27% compared to 14%; FIG. 9B). […]

H9-HIV cells [2] = assay: TUNEL DNA fragmentation in H9-HIV cells; type: cell-based; settings: 24 hr; between 10 and 20 μM CPX, leveled off at 40 μM
Experimental: The potential across the mitochondrial membrane of live cells was determined flow-cytometrically with the lipophilic cationic fluorochrome JC-1 (5,5′,6,6′-tetrachloro-1,1′,3,3′-tetraethylbenzimidazolcarbocyanine iodide) immediately after sample harvest (BD™ Mitoscreen Kit, BD Biosciences; San Diego, Calif.). DNA fragmentation was quantified flow-cytometrically, using a TUNEL (terminal deoxynucleotide transferase dUTP nick end-labeling) assay (APO-BRDU™; Phoenix Flow Systems; San Diego, Calif.) and a dual-color assay for annexin V binding and 7-AAD exclusion (Annexin V-PE 7-AAD Apoptosis Detection Kit I™; BD Biosciences Pharmingen, San Jose, Calif.). The apoptotic volume decrease of cells was assessed by the reduction of their diameter (VI-CELL™; Beckman Coulter; Fullerton, Calif.).
The relationship between iron chelation and apoptosis was assessed using the TUNEL assay to measure DNA fragmentation. DEF induces this late apoptotic event in HIV-expressing ACH-2 cells. Similarly, CPX triggered DNA fragmentation in H9-HIV cells in a dose-dependent manner with a steep, almost 10-fold increase in TUNEL-positive cells between 10 and 20 μM CPX that leveled off at 40 μM (FIG. 11C). […]

IFN-γ = IFN-γ secretion by PBMC cultures (cytometric bead array); type: cell-based, human; settings: CPX added at inoculation or 12 hr later; Phase I
Experimental: as §2, §3, §4

[3] = in vivo; cited from earlier work
HIV-1 = assay: Small trial of virological response to DEF in HIV-infected volunteers; type: in vivo, human

Compound	89-kDa PARP fluorescence intensity, infected versus uninfected (H9-HIV cells [1])	cells positive for 89-kDa PARP (H9-HIV cells [1]) [%]	increase in cells positive for 89-kDa PARP (H9-HIV cells [1]; relative to untreated) [fold]	HIV-induced rise of IL-10 (IL-10)	cells positive for 89-kDa PARP (uninfected H9 cells) [%]	increase in cells positive for 89-kDa PARP (uninfected H9 cells; relative to untreated) [fold]	increase in TUNEL-positive cells (H9-HIV cells [2]) [fold]	HIV-induced rise of IFN-γ (IFN-γ)	tolerability [3]	virological response after drug withdrawal (HIV-1)
Cc1cc(C2CCCCC2)n(O)c(=O)c1 [CPX, 6-cyclohexyl-1-hydroxy-4-methylpyridin-2[1H]-one]	approximately one order of magnitude higher	27	~8	abolished the HIV-induced cytokine boost	14	~2	~10	abolished the HIV-induced cytokine boost	well tolerated	
Cc1c(O)c(=O)ccn1C [DEF, 3-hydroxy-1,2-dimethylpyridin-4(1H)-one]										persistent off-medicine antiretroviral activity even eight weeks after drug withdrawal
